Measurements taken from patent US9926297B2, “Bicyclic AZA compounds as muscarinic M1 receptor and/or M4 receptor agonists” (Heptares Therapeutics Limited, priority 2014, dated 2018).
Where two headings read alike, the source gives them in different places.

Experiments:
[1] = target: T1, human muscarinic M1 receptor (Homo sapiens, UniProt P11229); experiment: Alphascreen Surefire phospho-ERK1/2 functional assay, M1; format: cell-based; conditions: for EC50 / % Emax cf. ACh, M1: CHO cells stably expressing human M1; for EC50: phospho-ERK1/2, * = variable results, read-out: pEC50 M1 (converted); for Emax: CHO
T1 sequence (P11229 1-460): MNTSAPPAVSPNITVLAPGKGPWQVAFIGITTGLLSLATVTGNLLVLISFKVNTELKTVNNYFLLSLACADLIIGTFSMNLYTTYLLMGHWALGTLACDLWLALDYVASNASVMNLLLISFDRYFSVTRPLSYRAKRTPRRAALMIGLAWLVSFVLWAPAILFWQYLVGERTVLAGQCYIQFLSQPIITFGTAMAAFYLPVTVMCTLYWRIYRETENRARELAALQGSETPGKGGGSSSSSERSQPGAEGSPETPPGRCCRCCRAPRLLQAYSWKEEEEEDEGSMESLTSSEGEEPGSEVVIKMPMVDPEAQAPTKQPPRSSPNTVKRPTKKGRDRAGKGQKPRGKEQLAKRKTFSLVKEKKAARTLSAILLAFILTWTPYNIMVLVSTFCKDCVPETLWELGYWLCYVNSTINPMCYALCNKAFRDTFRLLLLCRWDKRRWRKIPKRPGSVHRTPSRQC

[2] = target: T2, human muscarinic M4 receptor (Homo sapiens, UniProt P08173); experiment: Alphascreen Surefire phospho-ERK1/2 functional assay, M4; format: cell-based; conditions: for EC50 / % Emax cf. ACh, M4: CHO cells stably expressing human M4; for EC50: phospho-ERK1/2, * = variable results, read-out: pEC50 M4 (converted); for Emax: CHO
T2 construct: expressed in transfected cells
T2 sequence (P08173 1-479): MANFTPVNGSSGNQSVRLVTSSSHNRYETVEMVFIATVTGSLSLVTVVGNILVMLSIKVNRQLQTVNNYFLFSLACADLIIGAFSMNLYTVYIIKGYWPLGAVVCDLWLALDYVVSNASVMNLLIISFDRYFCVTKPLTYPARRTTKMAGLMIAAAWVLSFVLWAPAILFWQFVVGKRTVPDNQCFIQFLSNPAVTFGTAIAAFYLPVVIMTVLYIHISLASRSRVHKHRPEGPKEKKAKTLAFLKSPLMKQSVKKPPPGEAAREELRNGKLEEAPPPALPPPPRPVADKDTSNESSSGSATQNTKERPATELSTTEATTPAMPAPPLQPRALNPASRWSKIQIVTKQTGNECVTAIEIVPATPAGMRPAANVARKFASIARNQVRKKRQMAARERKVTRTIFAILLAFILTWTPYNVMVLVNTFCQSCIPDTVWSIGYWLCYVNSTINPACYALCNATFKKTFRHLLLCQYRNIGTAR

[3] = read-out: % Emax cf. ACh, M1, CHO cells stably expressing human M1, relative to ACh
[4] = read-out: % Emax cf. ACh, M4, CHO cells stably expressing human M4, relative to ACh

EC50 [1] [nM] | EC50 [2] [nM] | Emax [1, 3] [%] | Emax [2, 4] [%] | % Emax cf. ACh, M1 ([1]; relative to ACh) [%] | % Emax cf. ACh, M4 ([2]; relative to ACh) [%] | SMILES | Emax ([1]; read-out: % Emax cf. ACh, M1) [%] | Emax ([2]; read-out: % Emax cf. ACh, M4) [%]
> 20000 | 316 | 14 | 43 | – | – | CCOC(=O)N1CCC2(CC(N3CCC([C@@H]4CCCN4CC(=O)N(C)C)CC3)C2)C1 (single isomer, unassigned) [2-73 Isomer 2] | – | –
2510 | > 20000 | 66 | 3 | – | – | CCOC(=O)N1CCC2(CC(N3CCC(N4CCC[C@H]4C(=O)NC)CC3)C2)C1 (single isomer, unassigned) [2-85 Isomer 2] | – | –
> 20000 | 100 | 40 | 39 | – | – | CCOC(=O)N1CCC2(CC(N3CCC(c4cnc(OC)c(C)c4)CC3)C2)C1 (single isomer, unassigned) [3-7 Isomer 2, ethyl 2-[4-(6-methoxy-5-methylpyridin-3-yl)piperidin-1-yl]-6-azaspiro[3.4]octane-6-carboxylate] | – | –
> 20000 | 69.2 | – | – | 10 | 47 | CCOC(=O)N1CCC2(CC(N3CCC(C4CCCNC4=O)CC3)C2)C1 (single isomer, unassigned) [4-1 Isomer 2, ethyl 2-(2-oxo-3,4′-bipiperidin-1′-yl)-6-azaspiro[3.4]octane-6-carboxylate] | – | –
> 20000 | 158 | 18 | 54 | – | – | CCOC(=O)N1CCC2(CC(N3CCC(N4CC[C@H](F)C4)CC3)C2)C1 (single isomer, unassigned) [2-99 Isomer 2] | – | –
> 20000 | 63.1 | 18 | 95 | – | – | CCOC(=O)N1CCC2(CC(N3CCC(N4C[C@H](F)C[C@@H]4C(=O)OC)CC3)C2)C1 (single isomer, unassigned) [2-134 Isomer 2] | – | –
> 20000 | 251 | 7 | 38 | – | – | CCOC(=O)N1CCC2(CC(N3CCC(C4CCCCN4C(=O)CC)CC3)C2)C1 (single isomer, unassigned) [4-19 Isomer 2, ethyl 2-(1-propanoyl-2,4′-bipiperidin-1′-yl)-6-azaspiro[3.4]octane-6-carboxylate] | – | –
> 20000 | 63.1 | 12 | 33 | – | – | CCOC(=O)N1CCC2(CC(N3CCC([C@@H]4CCCN4c4ncccn4)CC3)C2)C1 (single isomer, unassigned) [2-81 Isomer 2] | – | –
1000 | 200 | 31 | 60 | – | – | CCOC(=O)N1CCC2(CC(N3CCC(N4C(=O)OC[C@@H]4C)CC3)C2)C1 (single isomer, unassigned) [2-121 Isomer 2] | – | –
5010 | 316 | 40 | 78 | – | – | CCOC(=O)N1CCC2(CC(N3CCC(c4nnnn4C)CC3)C2)C1 (single isomer, unassigned) [1-64 Isomer 2, ethyl 2-[4-(1-methyl-1H-tetrazol-5-yl)piperidin-1-yl]-6-azaspiro[3.4]octane-6-carboxylate] | – | –
1260 | 158 | 74 | 106 | – | – | CCOC(=O)N1CCC2(CC(N3CCC(c4nccn4CCOC)CC3)C2)C1 (single isomer, unassigned) [1-51 Isomer 2, ethyl 2-{4-[1-(2-methoxyethyl)-1H-imidazol-2-yl]piperidin-1-yl}-6-azaspiro[3.4]octane-6-carboxylate] | – | –
> 20000 | 126 | 33 | 84 | – | – | CCOC(=O)N1CCC2(CC(N3CCC(N4C(=O)OC[C@H]4C)CC3)C2)C1 (single isomer, unassigned) [2-118 Isomer 2] | – | –
2000 | 501 | 57 | 60 | – | – | CCOC(=O)N1CCC2(CC(N3CCC(c4nnco4)CC3)C2)C1 (single isomer, unassigned) [1-28 Isomer 2, ethyl 2-[4-(1,3,4-oxadiazol-2-yl)piperidin-1-yl]-6-azaspiro[3.4]octane-6-carboxylate] | – | –
3980 | 158 | – | – | 37 | 52 | CCOC(=O)N1CCC2(CC(N3CCC([C@@H]4CCCN4CCC(F)(F)F)CC3)C2)C1 (single isomer, unassigned) [2-70 Isomer 1] | – | –
398 | 200 | 80 | 61 | – | – | CCOC(=O)N1CCC2(CC(N3CCC(n4ccnn4)CC3)C2)C1 (single isomer, unassigned) [1-35 Isomer 2, ethyl 2-[4-(1H-1,2,3-triazol-1-yl)piperidin-1-yl]-6-azaspiro[3.4]octane-6-carboxylate] | – | –
5010 | 501 | 40 | 64 | – | – | COC(=O)N1CCC2(CC(N3CCC(c4nn(C)cc4C)CC3)C2)C1 (single isomer, unassigned) [1-55 Isomer 2, methyl 2-[4-(1,4-dimethyl-1H-pyrazol-3-yl)piperidin-1-yl]-6-azaspiro[3.4]octane-6-carboxylate] | – | –
1000 | 398 | 27 | 41 | – | – | CCOC(=O)N1CCC2(CC(N3CCC(c4nnc(CC)[nH]4)CC3)C2)C1 (single isomer, unassigned) [1-27 Isomer 2, ethyl 2-[4-(5-ethyl-1H-1,2,4-triazol-3-yl)piperidin-1-yl]-6-azaspiro[3.4]octane-6-carboxylate] | – | –
1000 | 251 | 55 | 67 | – | – | CCOC(=O)N1CCC2(CC(N3CCC(c4nc(C#N)c[nH]4)CC3)C2)C1 (single isomer, unassigned) [1-4 Isomer 2, ethyl 2-[4-(4-cyano-1H-imidazol-2-yl)piperidin-1-yl]-6-azaspiro[3.4]octane-6-carboxylate] | – | –
5010 | 1260 | 38 | 80 | – | – | CCOC(=O)N1CCC2(CC(N3CCC(c4nccn4CC(=O)O)CC3)C2)C1 (single isomer, unassigned) [1-53 Isomer 2, (2-{1-[6-(ethoxycarbonyl)-6-azaspiro[3.4]oct-2-yl]piperidin-4-yl}-1H-imidazol-1-yl)acetic acid] | – | –
> 20000 | 251 | 60 | 73 | – | – | CCOC(=O)N1CCC2(CC(N3CCC(c4nnnn4CC)CC3)C2)C1 (single isomer, unassigned) [1-65 Isomer 2, ethyl 2-[4-(1-ethyl-1H-tetrazol-5-yl)piperidin-1-yl]-6-azaspiro[3.4]octane-6-carboxylate] | – | –
> 20000 | 39.8 | 17 | 44 | – | – | CCOC(=O)N1CCC2(CC(N3CCC([C@@H]4CCCN4c4nnc(C)o4)CC3)C2)C1 (single isomer, unassigned) [2-138 Isomer 2] | – | –
79.4 | 6.31 | 91 | 98 | – | – | [2H]C([2H])(C)OC(=O)N1CCC2(CC(N3CCC(n4cccn4)CC3)C2)C1 (single isomer, unassigned) [1-68 Isomer 2, (1,1-^2H2)ethyl 2-[4-(1H-pyrazol-1-yl)piperidin-1-yl]-6-azaspiro[3.4]octane-6-carboxylate] | – | –

SMILES | EC50 [1] [nM] | EC50 [2] [nM] | Emax [1, 3] [%] | Emax [2, 4] [%] | % Emax cf. ACh, M1 ([1]; relative to ACh) [%] | % Emax cf. ACh, M4 ([2]; relative to ACh) [%] | Emax ([1]; read-out: % Emax cf. ACh, M1) [%] | Emax ([2]; read-out: % Emax cf. ACh, M4) [%]
CCOC(=O)N1CCC2(CC(N3CCC(O)(c4ncc[nH]4)CC3)C2)C1 (single isomer, unassigned) [1-37 Isomer 2, ethyl 2-[4-hydroxy-4-(1 H-imidazol-2-yl)piperidin-1-yl]-6-azaspiro[3.4]octane-6-carboxylate] | 2510 | 501 | – | – | – | – | 78 | 126
CCOC(=O)N1CCC2(CC(N3CCC(OC)(c4nccn4C)CC3)C2)C1 (single isomer, unassigned) [1-40 Isomer 2, ethyl 2-[4-methoxy-4-(1-methyl-1H-imidazol-2-yl)piperidin-1-yl]-6-azaspiro[3.4]octane-6-carboxylate] | > 20000 | 158 | – | – | – | – | 904 | 50
CCOC(=O)N1CCC2(CC(N3CCC(O)(c4nccn4C)CC3)C2)C1 (single isomer, unassigned) [1-39 Isomer 2, ethyl 2-[4-hydroxy-4-(1-methyl-1H-imidazol-2-yl)piperidin-1-yl]-6-azaspiro[3.4]octane-6-carboxylate] | 1000 | 398 | – | – | – | – | 49 | 97
